Data as given in patent US12564597B2 (priority 2020, dated 2026).

Experiments:
[1] = Metabolic stability and noribogaine formation in rat liver microsomes (RLM); conditions: for Percentage turnover of test compounds (percent remaining): 10 μM, +NADPH
Protocol: (§1) Metabolism Studies. Metabolic stability of test compounds was evaluated in liver microsomes from rat (RLM) and human (HLM). This was accomplished by incubating test compounds with microsomes and monitoring disappearance of parent compound as well as metabolite formation over time using LC-MS/MS in Multiple Reaction Monitoring mode (MRM).
(§2) Stock solutions of test compounds were prepared in DMSO at a concentration of 10 mM.
(§3) Total Incubation volume: 100 μL
(§4) Compound concentration: 10 μM
(§5) Protein Concentration: 0.5 mg/mL (0.25 mg/mL for positive controls)
(§6) From the above mix, 70 PL was added to individual wells of 96 well reaction plates and pre-incubated at 37° C. for 5 min. […] Reactions without NADPH and buffer controls (minus NADPH) at 0 min and 60 min were also incubated to rule out non-NADPH metabolism or chemical instability in the incubation buffer. All reactions were terminated using 100 μL of ice-cold acetonitrile containing internal standard (glipizide) at 0, 5, 15, 30 and 60 min.
(§7) Stock solution of noribogaine was prepared in DMSO at a concentration of 20 mM and serially diluted in DMSO to prepare 10, 3, 1, 0.3, 0.1 and 0.03 mM solutions respectively.
(§8) Samples were monitored for parent compounds disappearance and formation of metabolite in MRM mode using LC-MS/MS instrument (API-4000 with Waters UPLC).
(§9) The percent remaining of test compounds and positive control in each sample was determined by considering peak area ratio in the 0 minute sample as 100%.
(§10) In vitro intrinsic clearance (CL′int) (units in mL/min/kg) was calculated using the formula: […]
(§11) For human, monkey, dog, rat and mouse the liver weight are 20 gm, 32 gm, 32 gm, 40 gm and 90 gm respectively.

in vitro = conditions: for Percentage turnover of test compounds (percent remaining): 10 μM, +NADPH
Protocol: as §1, §2, §3, §4, §5, §6, §7, §8, §9, §10, §11

[2] = Buffer control for chemical instability in the incubation buffer; type: physicochemical; conditions: Kphos buffer pH 7.4, 37° C., no microsomes, minus NADPH
[3] = Plasma pharmacokinetics and brain distribution in male Wistar rats after a single intraperitoneal dose
Protocol: Formulation strengths for intraperitoneal administration was 4 mg/mL. A weighed quantity of compound was combined with an appropriate volume of vehicle (10% ethanol and 90% normal saline), the mixture was warmed to 55° C. and vortexed until a clear yellowish solution was obtained. The dosing volume administered was 10 mL/kg for intraperitoneal route.
Healthy male Wistar rats (8-12 weeks old) weighing between 280 to 300 g were procured from Global, India. Three rats were housed in each cage. […] Temperature and humidity were recorded by auto-controlled data logger system. All the animals were provided laboratory rodent diet (Envigo Research private Ltd, Hyderabad). Reverse osmosis water treated with ultraviolet light was provided ad libitum.
Blood samples (approximately 120 μL) were collected under light isoflurane anesthesia from retro orbital plexus from a set of three rats at specified time intervals. Samples were collected into labeled micro-tubes, containing K2EDTA solution (10 μL of 20% K2EDTA of solution per mL of blood) as an anticoagulant. Plasma was immediately harvested from the blood by centrifugation at 4000 rpm for 10 min at 4±2° C. and stored below −70±10° C. until bioanalysis.
Immediately, after blood collection animals were euthanized with excess CO2 and brain was isolated at each time point. Brain was rinsed three times in ice cold PBS (for 5-10 seconds/rinse using ˜5-10 mL fresh PBS in disposable petri dish for each rinse) and dried on blotting paper. Brain samples were homogenized using ice-cold phosphate buffer saline (pH 7.4) and homogenates were stored below −70±10° C. until analysis. Total homogenate volume was three times the tissue weight.
The extraction procedure for plasma and brain samples and the spiked plasma and brain calibration standards were identical: A 25 PL of study sample or spiked plasma and brain calibration standard was added to individual pre-labeled micro-centrifuge tubes followed by 100 PL of internal standard prepared in Acetonitrile (Glipizide, 500 ng/mL) was added except for blank, where 100 μL of Acetonitrile was added. Samples were vortexed for 5 minutes and then centrifuged for 10 minutes at a speed of 4000 rpm at 4° C. Following centrifugation, 100 μL of clear supernatant was transferred to a 96 well plate and analyzed using LC-MS/MS.
Non-compartmental analysis tool of Phoenix WinNonlin® (Version 7.0) was used to assess the pharmacokinetic parameters. Peak plasma concentrations (Cmax) and time for the peak plasma concentrations (Tmax) were the observed values. The areas under the concentration time curve (AUClast and AUCinf) were calculated by linear trapezoidal rule. The terminal elimination rate constant, ke was determined by regression analysis of the linear terminal portion of the log plasma concentration-time curve.

[4] = 0.08 h after CD3O-ibogamine 40 mg/kg i.p.
[5] = 0.5 h after CD3O-ibogamine 40 mg/kg i.p.
[6] = 1 h after CD3O-ibogamine 40 mg/kg i.p.
[7] = 2 h after CD3O-ibogamine 40 mg/kg i.p.
[8] = 3 h after CD3O-ibogamine 40 mg/kg i.p.
[9] = male, Wistar, rat, in vivo, ip, 40 mg/kg, brain, analyte after CD3O-ibogamine 40 mg/kg i.p.
[10] = male, Wistar, rat, in vivo, ip, 40 mg/kg, plasma, analyte after CD3O-ibogamine 40 mg/kg i.p.

Structure (SMILES): [2H]C([2H])([2H])Oc1ccc2[nH]c3c(c2c1)CCN1C[C@H]2C[C@H](CC)C1[C@H]3C2 [CD3O-ibogamine]
- CLh, int ([1]; RLM): 742 mL/min/kg
- t1/2 ([1]; RLM): <5 min
- Percentage turnover of test compounds (percent remaining) ([1]; RLM, 0 min): 100%
- Percentage turnover of test compounds (percent remaining) ([1]; RLM, 5 min): 36%
- Percentage turnover of test compounds (percent remaining) ([1]; RLM, 15 min): 0%
- Percentage turnover of test compounds (percent remaining) ([1]; RLM, 30 min): 1%
- Percentage turnover of test compounds (percent remaining) ([1]; RLM, 60 min): 0%
- % Remaining at 60 min (+NADPH) ([1]; RLM, summary): 0%
- % Remaining at 60 min (−NADPH) ([1]; RLM, without NADPH): 105%
- metabolism compared to ibogaine in the in vitro study ([1]; in vitro microsome study): metabolized faster than ibogaine
- half-life at 10 μM ([1]; male, rat, microsomes, pH 7.4): < 5 min
- total amount of noribogaine produced compared to ibogaine ([1]; short incubation period (~5 min)): comparable
- CLh, int (in vitro; HLM): 42 mL/min/kg
- metabolic degradation, times faster compared to that of ibogaine (in vitro; HLM): more than 2 ×
- Percentage turnover of test compounds (percent remaining) (in vitro; HLM, 0 min): 100%
- Percentage turnover of test compounds (percent remaining) (in vitro; HLM, 5 min): 98%
- Percentage turnover of test compounds (percent remaining) (in vitro; HLM, 15 min): 83%
- Percentage turnover of test compounds (percent remaining) (in vitro; HLM, 30 min): 67%
- Percentage turnover of test compounds (percent remaining) (in vitro; HLM, 60 min): 25%
- % Remaining at 60 min (+NADPH) (in vitro; HLM, summary): 25%
- % Remaining at 60 min (−NADPH) (in vitro; HLM, without NADPH): 105%
- half-life (in vitro; human, microsomes, pH 7.4): 30 min
- % Remaining at 60 min (Buffer) [2]: 90%
- Mean brain concentration [3, 4]: 11340 ng/g
- Mean plasma concentration [3, 4]: 1229 ng/mL
- Mean brain concentration [3, 5]: 6647 ng/g
- Mean plasma concentration [3, 5]: 698 ng/mL
- Mean brain concentration [3, 6]: 5363 ng/g
- Mean plasma concentration [3, 6]: 620 ng/mL
- Mean brain concentration [3, 7]: 3941 ng/g
- Mean plasma concentration [3, 7]: 343 ng/mL
- Mean brain concentration [3, 8]: 4684 ng/g
- Mean plasma concentration [3, 8]: 473 ng/mL
- AUClast ([3]; brain, analyte after CD3O-ibogamine 40 mg/kg i.p.): 16357.31 ng·h/g
- AUC(0-t) ([3]; male, Wistar, rat, in vivo, ip, 40 mg/kg, AUClast, plasma, analyte after CD3O-ibogamine 40 mg/kg i.p.): 1700 ng·h/mL
- Cmax [3, 9]: 11300 ng/g
- Cmax [3, 10]: 1230 ng/mL
- Tmax [3, 9]: 4.8 min
- Tmax [3, 10]: 4.8 min
- difference of plasma concentration versus ibogaine (lower for CD3O-ibogamine) ([3]; single i.p. dose 40 mg/kg): approximately 25%
- maximum brain concentration as percent of the ibogaine concentration detected after its administration ([3]; single i.p. dose 40 mg/kg): ~43%
